Measurements published in patent US8884030B2, “Inhibitors of Flaviviridae viruses” (priority 2010, dated 2014).

What follows are compounds tested on human hepatoma Huh-7 cell line harboring a HCV replicon (assay: HCV replicon assay (inhibition of viral replication, luciferase)). Details: Hepatitis C virus, 72 h; 2 μM; Huh-7 HCV replicon cells, 3 days incubation; inhibition of viral replication; read-out: % inhibition at 2 μM.
Assay type: cell-based
Description: The anti-HCV activity of the compounds of this invention was tested in a human hepatoma Huh-7 cell line harboring a HCV replicon. The assay comprised the following steps:
Step 1: Compound Preparation and Serial Dilution.
Serial dilution was performed in 100% DMSO in a 384-well plate. A solution containing a compound at 225-fold concentration of the starting final serial dilution concentration was prepared in 100% DMSO and 15 uL added to the pre-specified wells in column 3 or 13 of a polypropylene 384-well plate. The rest of the 384-well plate was filled with 10 uL 100% DMSO except for columns 23 and 24, where 10 uL of 500 uM a HCV protease inhibitor (ITMN-191) in 100% DMSO was added. The HCV protease inhibitor was used a control of 100% inhibition of HCV replication. The plate was then placed on a Biomek FX Workstation to start the serial dilution. The serial dilution was performed for ten cycles of 3-fold dilution from column 3 to 12 or from column 13 to 22.
Step 2: Cell Culture Plate Preparation and Compound Addition
To each well of a black polypropylene 384-well plate, 90 μL of cell media containing 1600 suspended Huh-7 HCV replicon cells was added with a Biotek uFlow Workstation. A volume of 0.4 μL of the compound solution was transferred from the serial dilution plate to the cell culture plate on a Biomek FX Workstation. The DMSO concentration in the final assay condition was 0.44%. The plates were incubated for 3 days at 37° C. with 5% CO2 and 85% humidity.
Step 3: Detection of Cytotoxicity and Inhibition of Viral Replication
a) Assessment of cytotoxicity: The media in the 384-well cell culture plate was aspirated with a Biotek EL405 plate-washer. A volume of 50 μL of a solution containing 400 nM Calcein AM in 100% PBS was added to each well of the plate with a Biotek uFlow Workstation. The plate was incubated for 30 minutes at room temperature before the fluorescence signal ([…]) was measured with a Perkin Elmer Envision Plate Reader.
b) Assessment of inhibition of viral replication: The calcein-PBS solution in the 384-well cell culture plate was aspirated with a Biotek EL405 plate-washer. A volume of 20 μL of Dual-Glo luciferase buffer (Promega, Dual-Glo Luciferase Assay Reagent, cat. #E298B) was added to each well of the plate with a Biotek uFlow Workstation. The plate was incubated for 10 minutes at room temperature. A volume of 20 μL of a solution containing 1:100 mixture of Dual-Glo Stop & Glo substrate(Promega, Dual-Glo Luciferase Assay Reagent, cat. #E313B) and Dual-Glo Stop & Glo buffer (Promega, Dual-Glo Luciferase Assay Reagent, cat. #E314B) was then added to each well of the plate with a Biotek uFlow Workstation. The plate was incubated at room temperature for 10 minutes before the luminescence signal was measured with a Perkin Elmer Envision Plate Reader.
The percent cytotoxicity was determined by calcein AM conversion to fluorescent product. The average fluorescent signal from the DMSO control wells were defined as 100% nontoxic. The individual fluorescent signal from testing compound treated well was divided by the average signal from DMSO control wells and then multiplied by 100% to get the percent viability. The percent anti-HCV replication activity was determined by the luminescence signal from the testing well compared to DMSO controls wells. The background signal was determined by the average luminescence signal from the HCV protease inhibitor treated wells and was subtracted from the signal from the testing wells as well as the DMSO control wells. Following 3-fold serial dilutions, the EC50 and CC50 values were calculated by fitting % inhibition at each concentration to the following equation: % inhibition=100%[(EC50/[l])^b+1]
Where b is Hill's coefficient. See, for reference, Hill, A. V., The Possible Effects of the Aggregation of the Molecules of Hæmoglobin on its Dissociation Curves, J. Physiol. 40: iv-vii. (1910). […]
`CC1CCC(C(=O)N(c2cc(C#CC(C)(C)C)sc2C(=O)O)N(C)CCOc2cccnc2)CC1` (stereo not drawn) [Compound 130, 5-(3,3-dimethyl-but-1-ynyl)-3-{N′-methyl-N-(4-methyl-cyclohexanecarbonyl)-N′-[2-(pyridin-3-yloxy)-ethyl]-hydrazino}-thiophene-2-carboxylic acid] showed an inhibition at 2 µM of 98.7%.
`CC(C)(C)C#Cc1cc(N(C(=O)[C@H]2CC[C@H](C)CC2)C2CCC(NS(=O)(=O)c3cccnc3)CC2)c(C(=O)O)s1` (stereo partly drawn) [Compound 165, 5-(3,3-dimethyl-but-1-ynyl)-3-{(4-trans-methyl-cyclohexanecarbonyl)-[4-(pyridine-3-sulfonylamino)-cyclohexyl]-amino}-thiophene-2-carboxylic acid] was tested, and the inhibition at 2 µM was 95.7%.
`CC(C)(C)C#Cc1cc(N(C(=O)[C@H]2CC[C@H](C)CC2)C2CCN(C(=O)OC3(C)CN(C(=O)OC(C)(C)C)C3)CC2)c(C(=O)O)s1` [Compound 73, 4-[[2-carboxy-5-(3,3-dimethyl-but-1-ynyl)-thiophen-3-yl]-(trans-4-methyl-cyclohexanecarbonyl)-amino]-piperidine-1-carboxylic acid 1-tert-butoxycarbonyl-3-methyl-azetidin-3-yl ester] was tested, and the inhibition at 2 µM was 93.1%.
In the case of `CC(C)(C)C#Cc1cc(N(C(=O)[C@H]2CC[C@H](C)CC2)[C@H]2CCN(C(=O)O[C@@H]3CCOC3)C2)c(C(=O)O)s1` [Compound 42, 3-(S)-[[2-carboxy-5-(3,3-dimethyl-but-1-ynyl)-thiophen-3-yl]-(4-trans-methyl-cyclohexanecarbonyl)-amino]-pyrrolidine-1-carboxylic acid tetrahydro-furan-3-(R)-yl ester], the inhibition at 2 µM is reported as 99.9%.
In the case of `CC1CCC(C(=O)N(c2cc(C#CC(C)(C)C)sc2C(=O)O)C2CCC(=NOCc3ccncc3)CC2)CC1` (stereo not drawn) [Compound 117, 5-(3,3-Dimethylbut-1-ynyl)-3-(4-methyl-N-(4-(pyridin-4-ylmethoxyimino)cyclohexyl)cyclohexanecarboxamido)thiophene-2-carboxylic acid], the inhibition at 2 µM is reported as 99.9%.
In the case of `CC(C)(C)C#Cc1cc(N(C(=O)[C@H]2CC[C@H](C)CC2)C2CCC(NC(=O)O[C@@H]3CCCN(C(=O)OC(C)(C)C)C3)CC2)c(C(=O)O)s1` (stereo partly drawn) [Compound 46, 3-(R)-{4-[[2-carboxy-5-(3,3-dimethyl-but-1-ynyl)-thiophen-3-yl]-(4-trans-methyl-cyclohexanecarbonyl)-amino]-cyclohexylcarbamoyloxy}-piperidine-1-carboxylic acid tert-butyl ester], the inhibition at 2 µM is reported as 97%.
With `CC1CCC(C(=O)N(c2cc(C#CC(C)(C)C)sc2C(=O)O)C2CCC(=NOCc3cccnc3)CC2)CC1` (stereo not drawn) [Compound 118, 5-(3,3-Dimethylbut-1-ynyl)-3-(4-methyl-N-(4-(pyridin-3-ylmethoxyimino)cyclohexyl)cyclohexanecarboxamido)thiophene-2-carboxylic acid] the inhibition at 2 µM was 100%.
`CC(C)(C)C#Cc1cc(N(C(=O)[C@H]2CC[C@H](C)CC2)[C@H]2CCN(C(=O)O[C@@H]3CCCN(C(=O)OC(C)(C)C)C3)C2)c(C(=O)O)s1` [Compound 37, 3-(R)-{3-(S)-[[2-carboxy-5-(3,3-dimethyl-but-1-ynyl)-thiophen-3-yl]-(4-trans-methyl-cyclohexanecarbonyl)-amino]-pyrrolidine-1-carbonyloxy}-piperidine-1-carboxylic acid tert-butyl ester] was tested, and the inhibition at 2 µM was 99.6%.
`CC(C)(C)C#Cc1cc(N(C(=O)[C@H]2CC[C@H](C)CC2)[C@H]2CCN(C(=O)OC3CCN(C(=O)OC(C)(C)C)CC3)C2)c(C(=O)O)s1` [Compound 39, 4-{3-(S)-[[2-carboxy-5-(3,3-dimethyl-but-1-ynyl)-thiophen-3-yl]-(4-trans-methyl-cyclohexanecarbonyl)-amino]-pyrrolidine-1-carbonyloxy}-piperidine-1-carboxylic acid tert-butyl ester] showed an inhibition at 2 µM of 98.8%.
`CN([C@H]1CC[C@H](N(c2cc(C#CC(C)(C)C)sc2C(=O)O)C(=O)[C@H]2CC[C@H](C)CC2)CC1)S(=O)(=O)c1cccnc1` [Compound 164, 5-(3,3-dimethyl-but-1-ynyl)-3-((4-trans-methyl-cyclohexanecarbonyl)-{4-trans-[methyl-(pyridine-3-sulfonyl)-amino]-cyclohexyl}-amino)-thiophene-2-carboxylic acid] showed an inhibition at 2 µM of 98.9%.
In the case of `CON=C1CCC(N(C(=O)C2CCC(C)CC2)c2cc(C#CC(C)(C)C)sc2C(=O)O)CC1` (stereo not drawn) [Compound 120, 5-(3,3-Dimethylbut-1-ynyl)-3-(N-(4-(methoxyimino)cyclohexyl)-4-methylcyclohexanecarboxamido)thiophene-2-carboxylic acid], the inhibition at 2 µM is reported as 99.9%.
`CC(C)(C)C#Cc1cc(N(C(=O)[C@H]2CC[C@H](C)CC2)[C@H]2CCN(C(=O)O[C@H]3CO[C@H]4OCC[C@H]43)C2)c(C(=O)O)s1` [Compound 35, 3-(S)-[[2-Carboxy-5-(3,3-dimethyl-but-1-ynyl)-thiophen-3-yl]-(4-methyl-cyclohexanecarbonyl)-amino]-pyrrolidine-1-carboxylic acid hexahydro-furo[2,3-b]furan-3-(R)-yl ester] showed an inhibition at 2 µM of 99.8%.
For `C[C@@H](CCNC(=O)O[C@@H]1CCOC1)N(c1cc(C#CC(C)(C)C)sc1C(=O)O)C(=O)[C@H]1CC[C@H](C)CC1` [Compound 65, 5-(3,3-dimethyl-but-1-ynyl)-3-[[trans-4-methyl-cyclohexanecarbonyl)-[1-(S)-methyl-3-(tetrahydrofuran-3-yloxycarbonylamino)-propyl]-amino]-thiophene-2-carboxylic acid], the inhibition at 2 µM was 99.9%.
For `CC1CCC(C(=O)N(c2cc(C#CC(C)(C)C)sc2C(=O)O)N(C)C2CCNCC2)CC1` (stereo not drawn) [Compound 128, 5-(3,3-dimethyl-but-1-ynyl)-3-[N′-methyl-N-(4-methyl-cyclohexanecarbonyl)-N′-piperidin-4-yl-hydrazino]-thiophene-2-carboxylic acid], the inhibition at 2 µM was 99.8%.
`CC(C)(C)C#Cc1cc(N(C(=O)[C@H]2CC[C@H](C)CC2)C2CCC(NC(=O)O[C@@H]3CCNC3=O)CC2)c(C(=O)O)s1` (stereo partly drawn) [Compound 50, 5-(3,3-dimethyl-but-1-ynyl)-3-{(4-trans-methyl-cyclohexanecarbonyl)-[4-(2-oxo-pyrrolidin-3-(R)-yloxycarbonylamino)-cyclohexyl]-amino}-thiophene-2-carboxylic acid] showed an inhibition at 2 µM of 99.9%.
For `CC(C)(C)C#Cc1cc(N(C(=O)[C@H]2CC[C@H](C)CC2)[C@H]2CCN(C(=O)O[C@@H]3CCCNC3)C2)c(C(=O)O)s1` [Compound 38, 3-(S)-[[2-carboxy-5-(3,3-dimethyl-but-1-ynyl)-thiophen-3-yl]-(4-trans-methyl-cyclohexanecarbonyl)-amino]-pyrrolidine-1-carboxylic acid piperidin-3-(R)-yl ester], the inhibition at 2 µM was 99.6%.
Compound `CC(C)(C)C#Cc1cc(N(C(=O)[C@H]2CC[C@H](C)CC2)C2CCN(C(=O)O[C@@H]3CCOC3)CC2)c(C(=O)O)s1` [Compound 53, 4-[[2-carboxy-5-(3,3-dimethyl-but-1-ynyl)-thiophen-3-yl]-(4-trans-methyl-cyclohexanecarbonyl)-amino]-piperidine-1-carboxylic acid tetrahydro-furan-3-(R)-yl ester] has an inhibition at 2 µM of 99.9%.
For `CC(C)(C)C#Cc1cc(N(C(=O)[C@H]2CC[C@H](C)CC2)C2CCN(C(=O)OC3(C)CCN(C(=O)OC(C)(C)C)C3)CC2)c(C(=O)O)s1` (stereo partly drawn) [Compound 71], the inhibition at 2 µM was 95.1%.
